Species: Rattus norvegicus
Assay: DrugMatrix - Regimen: Daily Repeat
Format: toxicity, organism-based, Sprague-Dawley
Design: regimen Daily Repeat, gender Male, age 6-8 weeks
Conditions: in vivo, po, route oral GAVAGE; for ALANINE AMINOTRANSFERASE / ALBUMIN / ALKALINE PHOSPHATASE / ASPARTATE AMINOTRANSFERASE / BLOOD UREA NITROGEN / CARBON DIOXIDE / CHLORIDE / CHOLESTEROL / CREATINE PHOSPHOKINASE / CREATININE / GLUCOSE / LACTATE DEHYDROGENASE / LIPASE / PHOSPHORUS / POTASSIUM / SODIUM / TOTAL BILIRUBIN / TOTAL PROTEIN / URIC ACID: tissue Plasma
[1] = 4.5 mg/kg, 72 h, tissue Blood, dose level Low, time 3 day, vehicle 100 % WATER
[2] = 4.5 mg/kg, 72 h, dose level Low, time 3 day, vehicle 100 % WATER
[3] = 4.5 mg/kg, 120 h, tissue Blood, dose level Low, time 5 day, vehicle 100 % WATER
[4] = 4.5 mg/kg, 120 h, dose level Low, time 5 day, vehicle 100 % WATER
[5] = 7 mg/kg, 96 h, tissue Blood, dose level M1, time 4 day, […]

COc1ccc2c(c1)c(CC(=O)O)c(C)n2C(=O)c1ccc(Cl)cc1 [INDOMETHACIN]
HEMATOCRIT [1]: 32.73% | HEMOGLOBIN [1]: 13.1 G/DL | LEUKOCYTE COUNT [1]: 8.7 x10E3/uL | LYMPHOCYTE [1]: 87.33% | MEAN CORPUSCULAR HEMOGLOBIN [1]: 25.43 pg | MEAN CORPUSCULAR HEMOGLOBIN CONCENTRATION [1]: 40.03 G/DL | MEAN CORPUSCULAR VOLUME [1]: 63.57 fL | MONOCYTE [1]: 2.33% | NEUTROPHIL [1]: 10.33% | NUCLEATED RED BLOOD CELLS [1]: 0 /100WBC | PLATELET COUNT [1]: 1131.67 x10E3/uL | ALANINE AMINOTRANSFERASE [2]: 52.67 u/L | ALBUMIN [2]: 3.9 G/DL | ALKALINE PHOSPHATASE [2]: 367 u/L | ASPARTATE AMINOTRANSFERASE [2]: 74.33 u/L | BLOOD UREA NITROGEN [2]: 13.67 mg/dL | CARBON DIOXIDE [2]: 24.67 mmol/L | CHLORIDE [2]: 94 MEQ/L | CHOLESTEROL [2]: 72.33 mg/dL | CREATINE PHOSPHOKINASE [2]: 273.33 u/L | CREATININE [2]: 0.1 mg/dL | GLUCOSE [2]: 165 mg/dL | LACTATE DEHYDROGENASE [2]: 101.67 u/L | LIPASE [2]: 9 u/L | PHOSPHORUS [2]: 11.6 mg/dL | POTASSIUM [2]: 5.46 MEQ/L | SODIUM [2]: 137.1 MEQ/L | TOTAL BILIRUBIN [2]: 0.13 mg/dL | TOTAL PROTEIN [2]: 5.7 G/DL | URIC ACID [2]: 0.8 mg/dL | ABSOLUTE BASOPHIL [3]: 0 CELLS/uL | ABSOLUTE EOSINOPHIL [3]: 66.67 CELLS/uL | ABSOLUTE LYMPHOCYTE [3]: 7873.33 CELLS/uL | ABSOLUTE MONOCYTE [3]: 253.33 CELLS/uL | ABSOLUTE SEGMENTED NEUTROPHIL [3]: 1273.33 CELLS/uL | BASOPHIL [3]: 0% | EOSINOPHIL [3]: 0.67% | ERYTHROCYTE COUNT [3]: 4.7 x10E6/uL | HEMATOCRIT [3]: 30.3% | HEMOGLOBIN [3]: 12.03 G/DL | LEUKOCYTE COUNT [3]: 9.47 x10E3/uL | LYMPHOCYTE [3]: 83% | MEAN CORPUSCULAR HEMOGLOBIN [3]: 25.6 pg | MEAN CORPUSCULAR HEMOGLOBIN CONCENTRATION [3]: 39.67 G/DL | MEAN CORPUSCULAR VOLUME [3]: 64.47 fL | MONOCYTE [3]: 2.67% | NEUTROPHIL [3]: 13.67% | NUCLEATED RED BLOOD CELLS [3]: 0 /100WBC | PLATELET COUNT [3]: 1362.67 x10E3/uL | ALANINE AMINOTRANSFERASE [4]: 48.67 u/L | ALBUMIN [4]: 3.83 G/DL | ALKALINE PHOSPHATASE [4]: 350.67 u/L | ASPARTATE AMINOTRANSFERASE [4]: 60.67 u/L | BLOOD UREA NITROGEN [4]: 12 mg/dL | CARBON DIOXIDE [4]: 32 mmol/L | CHLORIDE [4]: 105 MEQ/L | CHOLESTEROL [4]: 66.67 mg/dL | CREATINE PHOSPHOKINASE [4]: 173.67 u/L | CREATININE [4]: 0.11 mg/dL | GLUCOSE [4]: 154 mg/dL | LACTATE DEHYDROGENASE [4]: 70.33 u/L | LIPASE [4]: 9.67 u/L | PHOSPHORUS [4]: 11 mg/dL | POTASSIUM [4]: 5.99 MEQ/L | SODIUM [4]: 146.87 MEQ/L | TOTAL BILIRUBIN [4]: 0.2 mg/dL | TOTAL PROTEIN [4]: 5.77 G/DL | URIC ACID [4]: 0.53 mg/dL | ABSOLUTE BASOPHIL [5]: 0 CELLS/uL | ABSOLUTE EOSINOPHIL [5]: 0 CELLS/uL | ABSOLUTE LYMPHOCYTE [5]: 6250 cells/µL | ABSOLUTE MONOCYTE [5]: 160 cells/µL | BASOPHIL [5]: 0% | EOSINOPHIL [5]: 0% | ERYTHROCYTE COUNT [5]: 3.97 x10E6/uL | HEMATOCRIT [5]: 25.4% | HEMOGLOBIN [5]: 8.9 G/DL | LEUKOCYTE COUNT [5]: 12.7 x10E3/uL | LYMPHOCYTE [5]: 78.5% | MEAN CORPUSCULAR HEMOGLOBIN [5]: 22.6 pg | MEAN CORPUSCULAR HEMOGLOBIN CONCENTRATION [5]: 35.1 G/DL | MEAN CORPUSCULAR VOLUME [5]: 64.5 fL | MONOCYTE [5]: 2% | NEUTROPHIL [5]: 19.5%
